What was measured:
Assay type in all cases: functional, cell-based
MCF7 = assay: Cytotoxicity against human MCF7 cells assessed as reduction in cell viability after 48 hrs by MTT assay; conditions: MCF7, 48 h
A-375 = assay: Cytotoxicity against human A-375 cells assessed as reduction in cell viability after 48 hrs by MTT assay; conditions: A-375, 48 h
HL-60 = assay: Cytotoxicity against human HL-60 cells assessed as reduction in cell viability after 48 hrs by MTT assay; conditions: HL-60, 48 h

Structure (SMILES) | IC50 (MCF7) | IC50 (A-375) | IC50 (HL-60)
COC(=O)CCc1oc2cccc(O)c2c(=O)c1[C@H](O)C(=O)OC | > 10 µM | > 10 µM | > 10 µM
COC(=O)c1c(N[C@@H]2Cc3oc4cccc(O)c4c(=O)c3[C@](O)(C(=O)OC)[C@@H]2O)ccc2oc3cccc(O)c3c(=O)c12 | > 10 µM | > 10 µM | > 10 µM
COC(=O)c1c(O)ccc2oc3cc(O)cc(O)c3c(=O)c12 | > 10 µM | > 10 µM | > 10 µM
COC(=O)[C@@]1(O)c2c(oc3cccc(O)c3c2=O)C[C@@H](OC)[C@H]1O | > 10 µM | > 10 µM | > 10 µM
COC(=O)[C@@]1(O)c2c(oc3cccc(O)c3c2=O)[C@@H](O)C[C@@H]1O | > 10 µM | > 10 µM | > 10 µM
COC(=O)[C@@]1(O)c2c(oc3cccc(O)c3c2=O)C[C@@H](S)[C@@H]1O | 6.5 µM | 8.6 µM | 4.9 µM
O=C1N[C@@H]2Cc3oc4cccc(O)c4c(=O)c3[C@@]1(O)[C@@H]2O | > 10 µM | > 10 µM | > 10 µM
COc1cccc2c1C(=O)c1c(O)c3c(c(O)c1C2=O)C[C@@](O)(C(=O)CO)C[C@@H]3O[C@H]1C[C@H](N)[C@H](O)[C@H](C)O1 [DOXORUBICIN] |  | 2.1 µM | 1.2 µM

— ChEMBL document CHEMBL4699518, “Cytotoxic Xanthone Derivatives from the Mangrove-Derived Endophytic Fungus Peniophora incarnata Z4” (J Nat Prod, 2020)
